Laboratory results reported in patent publication US10526325B2, “Bicyclic heterocyclic derivatives” (Merck Patent GmbH, priority 2015, dated 2020).

Assays:
PDHK2 = PDHK2 (Homo sapiens (Human), UniProt Q15119); assay: Biochemical activity testing of PDHK2: PDC inactivation assay; conditions: human rec PDHK2, porcine heart PDC, 5 μM ATP, read-out: IC50 PDHK2 (enzyme assay)
Text: Biochemical Activity Testing of PDHK2: PDC Inactivation Assay
The biochemical activity assay for PDHK2 is based on the inactivation of PDC through phosphorylation by PDHK2. The assay is run in two steps: the enzymatic PDHK2 reaction in which isolated PDC is phosphorylated by PDHK2 with ATP as co-substrate and the PDC activity assay in which pyruvate and NAD are converted to acetyl-CoA and NADH. The PDC activity correlates to the increase in NADH and thereby is detectable directly via the increasing fluorescence signal (Exc 340 nm, Em 450 nm). Inhibition of PDHK2 results in a lower phosphorylation status and thereby a less decrease in activity of PDC and a stronger increase in NADH fluorescence signal.
The PDC inactivation assay is performed in Greiner 384-well microtiter plates and is used for high throughput screen. 4 μl of PDHK2 (human, rec, Carna Bioscience, 10 ng/μl-137 nM final concentration) and PDC (isolated from porcine heart, Sigma-Aldrich, 20 mU/ml final concentration) are incubated in the absence or presence of the test compound (10 dilution concentrations) for 30 min at room temperature in kinase buffer (15 mM potassium phosphate buffer, pH 7.0, 60 mM KCl, 1.5 mM DTT, 2.5 mM MgCl2, 0.0125% (w/v) BSA, 0.125% Pluronic F-68). The kinase reaction is started by the addition of 4 μl ATP substrate solution (fc 5 μM in kinase buffer). After 30 min incubation at 37° C. 40 μl of PDC reaction solution (100 mM Tris/HCl, pH 7.8, 0.5 mM EDTA, 1 mM MgCl2, 50 mM NaF, 0.25 mM Coenzyme A, 5 mM pyruvate, 1 mM NAD, 5 mM DTT, 1 mM thiamine pyrophosphate) is added. The first fluorescence measurement is performed on a Perkin Elmer Envision (Exc 340 nm, Em 450 nm). The reaction is incubated for 45 min at room temperature. Afterwards a second fluorescence measurement is performed and the PDC activity is calculated by the difference between both measurements. As full value for the PDHK2 assay the inhibitor-free PDHK2 reaction is used. The pharmacological zero value used is DCA (Sigma-Aldrich) in a final concentration of 3 mM. The inhibitory values […] were determined using either the program Symyx Assay Explorer® or Condosseo® from GeneData.

human PDHK2 (12-407) = human PDHK2 (12-407) (Homo sapiens (Human), UniProt Q15119); assay: Isothermal titration calorimetry (ITC) binding; conditions: ITC at 30° C., pH 7.5
Procedure: Isothermal Titration Calorimetry
ITC measurements were performed with a VP-ITC micro calorimeter (Microcal, LLC/GE Healthcare Bio-Sciences Aft Uppsala, Sweden). In general titrations were performed by titrating the protein (50 μM) to the test compound (5 μM) in 12 μl injections. All binding experiments were carried out at 30° C. In general the test compounds were diluted form DMSO stock solutions into the measurement buffer with a maximum final concentration of 1% DMSO. The measurement buffer was 20 mM HEPES, 135 mM KCl, 1 mM TCEP, 2 mM MgCl2, 15 mM NaH2PO4, pH 7.5. The human PDHK2 (12-407) was produced in E. coli as his-tagged protein and purified by affinity chromatography. The tag was removed by side specific proteolysis. Before titration the protein buffer was changed to the measurement buffer containing the same DMSO concentration as the test compound dilution. ITC data analysis was performed using Origin 7 calorimetry software from the same supplier. For most measurements a binding model of one binding site was assumed. According to the applied mathematical model it is possible to calculate the binding constant (KA), the observed binding enthalpy (ΔH^obs) as well as the stoichiometry (N) of the formed complex.
Preceding analysis the raw data was corrected for the heats of dilution by extrapolating from the saturation value from the end of titration. In order to allow for direct comparison between the respective experimental series and protein preparations the protein concentration was corrected by referencing titrations to a well behaved standard inhibitor. The apparent stoichiometry values defined the fraction of binding competent protein and compensated for relative errors in protein concentration measurements. This corrected protein concentration was used to set up ITC experiment series with test compounds. Any deviations from ideal 1:1 stoichiometry observed here were attributed to errors in compound concentration. This nominal compound concentration was corrected as well to achieve 1:1 stoichiometry in the fit.

[1] = test system: PDH-E1alpha (pSer300) in HEK293T cells; assay: Cellular immunofluorescence assay, PDH-E1alpha (pSer300) in HEK293T cells; type: cell-based, human; conditions: Homo sapiens, HEK-293T, 5 hours incubation, anti-PDH-E1alpha (pSer300) immunofluorescence, read-out: IC50 (cell data)
Procedure: Cellular Assay for Determination of Compound Activities
Compound activities were determined in a cellular immunofluorescence assay. Human HEK293T cells were seeded into black 384-well plates with clear bottom and grown overnight.
Next day, test compounds were added to the wells and the plates incubated for 5 hours. Following this, cells were fixed with formaldehyde, permeabilised and blocked. The primary antibody, Anti-PDH-E1alpha (pSer300), AP1064 (Merck Millipore) was added and incubated overnight in the plate wells. Next, cells were washed and the secondary antibody, Alexa Fluor 488, goat anti-rabbit ab (A-11008, Invitrogen) was added together with Hoechst 33258 (H3569, Invitrogen) and incubated for 1 hour in the plate wells. Finally, cells were washed and the plates were measured on the laser scanning cytometer acumen hci (TTpLabtech).
The raw data were normalized against a pharmacological inhibitor control and dose response curves were generated by plotting the percent effect values using the software package Genedata screener (Genedata).

| IC50 (PDHK2) [nM] | Kd (human PDHK2 (12-407)) [nM] | Compound | IC50 [1] [nM] |
| --- | --- | --- | --- |
| < 300 | < 300 | C[C@@H]1CN(C(=O)[C@@](C)(O)C(F)(F)F)Cc2cnn(-c3ccccc3F)c21 [Compound A24, (R)-3,3,3-Trifluoro-1-[(R)-1-(2-fluoro-phenyl)-7-methyl-1,4,6,7-tetrahydro-pyrazolo[4,3-c]pyridin-5-yl]-2-hydroxy-2-methyl-propan-1-one] | < 300 |
| 300 to 3000 | < 300 | C[C@@](O)(C(=O)N1CCn2c(cnc2-c2ccc(F)cc2)C1)C(F)(F)F [Compound A51, (R)-3,3,3-Trifluoro-1-[3-(4-fluoro-phenyl)-5,6-dihydro-8H-imidazo[1,5-a]pyrazin-7-yl]-2-hydroxy-2-methyl-propan-1-one] | 3000 to 50000 |
| 300 to 3000 | < 300 | C[C@@H]1CN(C(=O)[C@@](C)(O)C(F)(F)F)Cc2cnc(-c3ncc(F)cc3F)n21 [Compound A57, (R)-1-[(R)-3-(3,5-Difluoro-pyridin-2-yl)-5-methyl-5,6-dihydro-8H-imidazo[1,5-a]pyrazin-7-yl]-3,3,3-trifluoro-2-hydroxy-2-methyl-propan-1-one] | < 300 |
| < 300 | < 300 | C[C@@H]1CN(C(=O)[C@@](C)(O)C(F)(F)F)Cc2cnc(-c3ccc(F)cc3F)n21 [Compound A54, (R)-1-[(R)-3-(2,4-Difluoro-phenyl)-5-methyl-5,6-dihydro-8H-imidazo[1,5-a]pyrazin-7-yl]-3,3,3-trifluoro-2-hydroxy-2-methyl-propan-1-one] | < 300 |
| < 300 | < 300 | C[C@@H]1CN(C(=O)[C@@](C)(O)C(F)(F)F)Cc2cnn(-c3ccc(F)cc3F)c21 [Compound A20, (R)-1-[(R)-1-(2,4-Difluoro-phenyl)-7-methyl-1,4,6,7-tetrahydro-pyrazolo[4,3-c]pyridin-5-yl]-3,3,3-trifluoro-2-hydroxy-2-methyl-propan-1-one] | < 300 |
| < 300 | < 300 | C[C@@H]1CN(C(=O)[C@@](C)(O)C(F)(F)F)Cc2cnn(-c3ccc(F)cc3)c21 [Compound A14, (R)-3,3,3-Trifluoro-1-[(R)-1-(4-fluoro-phenyl)-7-methyl-1,4,6,7-tetrahydro-pyrazolo[4,3-c]pyridin-5-yl]-2-hydroxy-2-methyl-propan-1-one] | < 300 |
| < 300 | < 300 | C[C@@H]1CN(C(=O)[C@@](C)(O)C(F)(F)F)Cc2cnn(C(C)(C)C)c21 [Compound A22, (R)-1-((R)-1-tert-Butyl-7-methyl-1,4,6,7-tetrahydro-pyrazolo[4,3-c]pyridin-5-yl)-3,3,3-trifluoro-2-hydroxy-2-methyl-propan-1-one] | < 300 |
| < 300 | < 300 | C[C@@H]1CN(C(=O)[C@@](C)(O)C(F)(F)F)Cc2cnn(-c3ncccc3F)c21 [Compound A32, (R)-3,3,3-Trifluoro-1-[(R)-1-(3-fluoro-pyridin-2-yl)-7-methyl-1,4,6,7-tetrahydro-pyrazolo[4,3-c]pyridin-5-yl]-2-hydroxy-2-methyl-propan-1-one] | < 300 |
| < 300 | < 300 | CC1CN(C(=O)[C@@](C)(O)C(F)(F)F)Cc2cnn(-c3ccc(F)cc3)c21 (stereo partly drawn) [Compound A12, (2R)-3,3,3-trifluoro-1-[1-(4-fluorophenyl)-7-methyl-6,7-dihydro-4H-pyrazolo[4,3-c]pyridin-5-yl]-2-hydroxy-2-methyl-propan-1-one] | < 300 |
| < 300 | < 300 | CC(C)(C)n1ncc2c1CCN(C(=O)[C@@](C)(O)C(F)(F)F)C2 [Compound A7, (R)-1-(1-tert-Butyl-1,4,6,7-tetrahydro-pyrazolo[4,3-c]pyridin-5-yl)-3,3,3-trifluoro-2-hydroxy-2-methyl-propan-1-one] | 300 to 3000 |
| < 300 | < 300 | CC1CN(C(=O)[C@@](C)(O)C(F)(F)F)Cc2cnn(-c3ccccc3)c21 (stereo partly drawn) [Compound A16, (R)-3,3,3-Trifluoro-2-hydroxy-2-methyl-1-(7-methyl-1-phenyl-1,4,6,7-tetra-hydro-pyrazolo[4,3-c]pyridin-5-yl)-propan-1-one] | < 300 |
| 300 to 3000 | 300 to 3000 | COc1ncc(F)c(-n2ncc3c2[C@@H](C)CN(C(=O)[C@@](C)(O)C(F)(F)F)C3)n1 [Compound A37, (R)-3,3,3-Trifluoro-1-[(S)-1-(5-fluoro-2-methoxy-pyrimidin-4-yl)-7-methyl-1,4,6,7-tetrahydro-pyrazolo[4,3-c]pyridin-5-yl]-2-hydroxy-2-methyl-propan-1-one] | 3000 to 50000 |
| < 300 | < 300 | C[C@@H]1CN(C(=O)[C@@](C)(O)C(F)(F)F)Cc2cnn(C3CCC(O)CC3)c21 (stereo partly drawn) [Compound A38, (R)-3,3,3-Trifluoro-2-hydroxy-1-[(R)-1-(4-hydroxy-cyclohexyl)-7-methyl-1,4,6,7-tetrahydro-pyrazolo[4,3-c]pyridin-5-yl]-2-methyl-propan-1-one] | < 300 |
| < 300 | < 300 | C[C@@](O)(C(=O)N1CCc2c(cnn2-c2ccc(Cl)cc2)C1)C(F)(F)F [Compound A1, (2R)-1-[1-(4-chlorophenyl)-6,7-dihydro-4H-pyrazolo[4,3-c]pyridin-5-yl]-3,3,3-trifluoro-2-hydroxy-2-methyl-propan-1-one] | 3000 to 50000 |
| < 300 | < 300 | C[C@@H]1CN(C(=O)[C@@](C)(O)C(F)(F)F)Cc2cnn(-c3ncc(F)cc3F)c21 [Compound A34, (R)-1-[(R)-1-(3,5-Difluoro-pyridin-2-yl)-7-methyl-1,4,6,7-tetrahydro-pyrazolo[4,3-c]pyridin-5-yl]-3,3,3-trifluoro-2-hydroxy-2-methyl-propan-1-one] | < 300 |
| 300 to 3000 | < 300 | C[C@@H]1CN(C(=O)[C@@](C)(O)C(F)(F)F)Cc2cn[nH]c21 [Compound A28, (R)-3,3,3-Trifluoro-2-hydroxy-2-methyl-1-((R)-7-methyl-1,4,6,7-tetrahydro-pyrazolo[4,3-c]pyridin-5-yl)-propan-1-one] | 3000 to 50000 |

| Compound | IC50 (PDHK2) [nM] | Kd (human PDHK2 (12-407)) [nM] | IC50 [1] [nM] |
| --- | --- | --- | --- |
| CC(C)(C)n1cc2c(n1)CCN(C(=O)[C@@](C)(O)C(F)(F)F)C2 [Compound A8, (R)-1-(2-tert-Butyl-2,4,6,7-tetrahydro-pyrazolo[4,3-c]pyridin-5-yl)-3,3,3-trifluoro-2-hydroxy-2-methyl-propan-1-one] | 300 to 3000 | 300 to 3000 | 3000 to 50000 |
